{
  "source": "patent US6468989B1",
  "about": "“Gel compositions containing metronidazole” (Dow Pharmaceutical Sciences, priority 2000, dated 2002)",
  "key": {"[1]": {"assay": "Solubility of imidazole compounds in purified water, 4% HPCD and 4% HECD", "format": "physicochemical", "method": "Six sample solutions were prepared as described in Example 1 except as follows. Two groups of three sample solutions each were prepared. […] The solubility of each of the samples was determined as shown in Table 5 and was compared to the solubility of the imidazole in purified water without a solubility enhancer."}, "[2]": {"assay": "Solubility of metronidazole in aqueous solutions with different HPCD concentrations, estimated by solution stability", "format": "physicochemical", "conditions": "1-day storage at room temperature followed by 1-day storage at 5° C.", "method": "Various solutions of hydroxypropyl-beta-cyclodextrin (HPCD) were prepared by combining a quantity of HPCD in water to yield the desired concentration of HPCD between 1% w/w and 15% w/w. To each HPCD solution, an excess amount of metronidazole was added. The solutions were placed in a shaker bath at about 60° C. for about 2 hours or more. After shaking, the samples were permitted to cool to room temperature and were stored at 5° C. […]\nIn accordance with the invention, stable aqueous metronidazole at the following concentrations may be obtained with the following concentrations of HPCD as shown in Table 1 and FIG. 1."}, "[3]": {"assay": "Solubilization of metronidazole by HPCD, niacinamide and their combination (visual, 1 week storage)", "format": "physicochemical", "method": "HPCD and niacinamide solutions were prepared and the concentrations of each to obtain a stable 1% metronidazole solution at 5° C. were determined as 5% and 3%, respectively. Then various combinations of HPCD and niacinamide concentrations in aqueous solution containing 1% metronidazole were prepared as in Example 1.\nIn the combination solutions, HPCD concentration was in the range of 0% to 5% and the concentration range of niacinamide was 0% to 3%. The solutions were kept at room temperature and 5° C. for a week to assess the maintenance of the dissolved state.\nFor solubilization effects of HPCD and niacinamide combinations, the concentrations of HPCD and niacinamide were determined in 1% metronidazole solutions, which were clear with no precipitate. Metronidazole solubility was visually determined after a week storage. In order to evaluate the solubilization capacity of the HPCD and niacinamide combinations, the niacinamide concentration required to make 1.5% metronidazole in 5% HPCD solution was determined by keeping the solution at 5° C. for 1 week."}, "[4]": {"conditions": "cited from earlier work"}},
  "note": "Like-named read-outs stand apart in the source and are kept apart here.",
  "data": [
    {"smiles": "CCC(C)n1ncn(-c2ccc(N3CCN(c4ccc(OCC5COC(Cn6cncn6)(c6ccc(Cl)cc6Cl)O5)cc4)CC3)cc2)c1=O", "note": "(stereo not shown) [Itraconazole, itraconazole]", "values": [
      {"measurement": "% w/w solubility", "setting": "[1]", "result": "less than 0.01 % w/w"},
      {"measurement": "Increase in solubility versus purified water", "setting": "[1]", "result": "not measurable"}
    ]},
    {"smiles": "CC(=O)N1CCN(c2ccc(OCC3COC(Cn4ccnc4)(c4ccc(Cl)cc4Cl)O3)cc2)CC1", "note": "(stereo not shown) [Ketoconazole, ketoconazole]", "values": [
      {"measurement": "% w/w solubility", "setting": "[1]", "result": "less than 0.01 % w/w"},
      {"measurement": "% w/w solubility", "setting": "[1]; 4% HECD", "result": "0.03-0.05 % w/w"},
      {"measurement": "% w/w solubility", "setting": "[1]; 4% HPCD", "result": "0.01-0.03 % w/w"}
    ]},
    {"smiles": "Cc1ncc([N+](=O)[O-])n1CCO", "note": "[Metronidazole, 1-(2-hydroxyethyl)-2-methyl-5-nitroimidazole]", "values": [
      {"measurement": "Appearance of solution", "setting": "[1]; 4% HECD and metronidazole solution", "result": "became yellow"},
      {"measurement": "Appearance of solution", "setting": "[1]; 4% HPCD and metronidazole solution", "result": "remained clear and colorless"},
      {"measurement": "Solubility of MTZ", "setting": "[2]; 0.0 % w/w HPCD", "result": 0.7, "unit": "% w/w"},
      {"measurement": "Solubility of MTZ", "setting": "[2]; 2.0 % w/w HPCD", "result": 1.0, "unit": "% w/w"},
      {"measurement": "Solubility of MTZ", "setting": "[2]; 8.0 % w/w HPCD", "result": 1.5, "unit": "% w/w"},
      {"measurement": "Solubility of MTZ", "setting": "[2]; 10.0 % w/w HPCD", "result": 2.0, "unit": "% w/w"},
      {"measurement": "Solubility of MTZ", "setting": "[2]; 15.0 % w/w HPCD", "result": 2.5, "unit": "% w/w"},
      {"measurement": "Niacinamide concentration that permitted a 1.5% metronidazole solution", "setting": "[3]; 5% HPCD", "result": 6, "unit": "%"},
      {"measurement": "Time the 1.5% metronidazole solution stayed clear with no precipitate", "setting": "[3]; 5% HPCD and 6% niacinamide, 5° C.", "result": 1, "unit": "week"},
      {"measurement": "Precipitation of 1.5% metronidazole solution", "setting": "[3]; 5% HPCD, no niacinamide, room temperature", "result": "showed a precipitate"},
      {"measurement": "HPCD concentration required to make a stable 1% metronidazole aqueous solution", "setting": "[3]; HPCD alone, 5° C. for 1 week", "result": 5, "unit": "%"},
      {"measurement": "Precipitation of aqueous solution containing 1% metronidazole", "setting": "[3]; HPCD reduced to 4% or less, 5° C. for 1 week", "result": "showed a precipitation formation"},
      {"measurement": "HPCD concentration giving a stable 1% MTZ solution", "setting": "[3]; in combination with 0.5% niacinamide", "result": 1.0, "unit": "%"},
      {"measurement": "Niacinamide concentration giving a stable 1% MTZ solution", "setting": "[3]; in combination with 1.0% HPCD", "result": 0.5, "unit": "%"},
      {"measurement": "Niacinamide concentration required to make 1% metronidazole aqueous solution", "setting": "[3]; niacinamide alone, 5° C. for 1 week", "result": 3, "unit": "%"},
      {"measurement": "Precipitation of aqueous solution containing 1% metronidazole", "setting": "[3]; niacinamide reduced to 2% or less, 5° C. for 1 week", "result": "showed a precipitation formation"}
    ]},
    {"smiles": "C[C@H]1O[C@@H](O[C@H]2[C@@H](O)C[C@H](O[C@H]3[C@@H](O)C[C@H](O[C@H]4CC[C@@]5(C)[C@H](CC[C@@H]6[C@@H]5C[C@@H](O)[C@]5(C)[C@@H](C7=CC(=O)OC7)CC[C@]65O)C4)O[C@@H]3C)O[C@@H]2C)C[C@H](O)[C@@H]1O", "note": "[digoxin]", "values": [
      {"measurement": "Water solubility combined with BCD relative to combined with HPCD", "setting": "[4]", "result": "five times more water soluble"}
    ]}
  ]
}
